Assay results from article PMC8151276, “An Integrated Approach toward NanoBRET Tracers for Analysis of GPCR Ligand Engagement” (Molecules, 2021).
Blank lines part the entries; values can stand above or below the compound they belong to.

What was measured:
Type in all cases: binding
TACR3 = target: T1, TACR3 (Homo sapiens, UniProt P29371); assay: NanoBRET screen HiBiT-TACR3 in HEK293
T1 construct: purchased Promega (in-house HiBiT-GPCR construct library, NanoBRET)
T1 sequence (P29371 1-465): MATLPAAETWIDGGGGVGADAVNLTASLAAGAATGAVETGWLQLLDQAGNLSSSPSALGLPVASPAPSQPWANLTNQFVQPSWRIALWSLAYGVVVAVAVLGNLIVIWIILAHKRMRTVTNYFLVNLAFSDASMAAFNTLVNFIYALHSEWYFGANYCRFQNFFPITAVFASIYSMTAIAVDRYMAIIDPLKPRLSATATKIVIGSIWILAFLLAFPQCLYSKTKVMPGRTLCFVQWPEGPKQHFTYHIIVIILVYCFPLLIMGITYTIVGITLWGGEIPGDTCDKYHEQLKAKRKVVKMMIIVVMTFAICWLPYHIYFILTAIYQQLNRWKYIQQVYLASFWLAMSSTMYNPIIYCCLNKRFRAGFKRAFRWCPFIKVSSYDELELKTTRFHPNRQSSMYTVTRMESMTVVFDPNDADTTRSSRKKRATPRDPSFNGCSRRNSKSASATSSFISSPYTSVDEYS
Method: (§1) Each tracer candidate was screened across the entire library of HiBiT-GPCR constructs using NanoBRET as the detection modality. As depicted in Figure 4A, the specificity of interactions was evaluated through decrease in BRET due to competitive displacement of a bound tracer by excess parental compound. Each tracer was analyzed for binding to each HiBiT-GPCR fusion in the absence and in the presence of competing parental compound. Briefly, HEK293 cells were transfected with HiBiT-GPCR constructs diluted into promoterless DNA to reduce expression and maximize translocation to the cell surface. Each tracer candidate was then screened at concentrations of 1 μM and 0.1 μM across cells expressing these fusions. Cells were treated for 1.5 h with tracer either alone or in the presence of 20 μM competing parental compound (i.e., control). BRET was measured upon addition of purified LgBiT and subsequent complementation with HiBiT genetically fused to a GPCR. The specificity of interactions was assessed through a decrease in BRET signal due to competitive displacement of the bound tracer. To further gauge the robustness of these interactions, the fold response over the control (i.e., BRETtracer/BRETcontrol) was calculated. We chose a 1.5-fold response, which translates to ≥7-fold signal over noise as the minimal threshold required to score an interaction as positive. […]. Below we highlight the screening results obtained for our exemplary fluorescent tracers based on Clozapine, Amitriptyline and AZD1283.
(§2) HiBiT-GPCR DNA constructs were diluted in 10 mM Tris pH 8 to a final concentration of 0.01 μg/μL, arrayed in 96-well plates and stored at −20 °C. For transfection, HEK293 cells were suspended in Opti-MEM (without phenol red) supplemented with 2% fetal bovine serum (Seradigm) and 100 units/mL penicillin–streptomycin (Gibco) at a final concentration of 220,000 cells/mL and dispensed into white 96-well plates at 90 μL/well. Subsequent transfections and screens were carried using an Agilent Bravo Automated Liquid Handling Platform. First, the 96-well HiBiT DNA arrays were diluted 25-fold in Opti-MEM (without serum or phenol red) to a final concentration of 0.0004 μg/μL and 20 μL of the diluted DNAs were transferred into new 96-well plates. Next, promoterless carrier DNA (1 μg/μL) was diluted 25-fold (0.04 μg/μL) and then dispensed into the diluted arrays at 20 μL/well. Following brief mixing, Viafect transfection reagent (Promega) diluted 16-fold into Opti-MEM was dispensed into the plates at 40 μL/well. After mixing by pipetting, plates were incubated for 10 min on the pipetting station deck. The DNA-transfection reagent complexes were then added to plates containing cells. To facilitate the screen, 10 μL of DNA-transfection reagent complexes were added in duplicates to the top 4 and bottom 4 rows, resulting in two identical 48-well arrays per plate. Plates with transfected cells were incubated for 18–20 h at 37 °C/5% CO2. A screen of each tracer across the entire library using two different concentrations requires duplicate plates of transfected cells. Depending on the number of tracers being screened, transfections can be scaled up using the same ratios. The next day, for each tracer, four 20× screening solutions in tracer dilution buffer (Promega) were prepared: two duplicates at final concentration of 20 μM and two duplicates at a final concentration of 2 μM. A competing unmodified compound was added to one of each duplicate at a final concentration of 400 μM. The four resulting solutions were diluted 4-fold in Opti-MEM without serum or phenol red to generate 5× solutions (5 µM and 0.5 µM tracer +/− 100 μM competing compound). To screen the library, a BioTek MultiFlo FX liquid dispenser was used to dispense 22.5 µL of tracer solution to the top 4 rows and 22.5 µL tracer + competing compound solution to the 4 bottom rows. Plates were briefly mixed on an orbital shaker and incubated for 1.5 h at room temperature. […]

FZD8 = target: T2, FZD8 (Homo sapiens, UniProt Q9H461); assay: NanoBRET screen HiBiT-FZD8 in HEK293
T2 construct: purchased Promega (in-house HiBiT-GPCR construct library, NanoBRET)
Method: as §1, §2

HTR2A = target: T3, HTR2A (Homo sapiens, UniProt P28223); assay: NanoBRET screen HiBiT-HTR2A in HEK293
T3 construct: purchased Promega (in-house HiBiT-GPCR construct library, NanoBRET)
T3 sequence (P28223 whole entry): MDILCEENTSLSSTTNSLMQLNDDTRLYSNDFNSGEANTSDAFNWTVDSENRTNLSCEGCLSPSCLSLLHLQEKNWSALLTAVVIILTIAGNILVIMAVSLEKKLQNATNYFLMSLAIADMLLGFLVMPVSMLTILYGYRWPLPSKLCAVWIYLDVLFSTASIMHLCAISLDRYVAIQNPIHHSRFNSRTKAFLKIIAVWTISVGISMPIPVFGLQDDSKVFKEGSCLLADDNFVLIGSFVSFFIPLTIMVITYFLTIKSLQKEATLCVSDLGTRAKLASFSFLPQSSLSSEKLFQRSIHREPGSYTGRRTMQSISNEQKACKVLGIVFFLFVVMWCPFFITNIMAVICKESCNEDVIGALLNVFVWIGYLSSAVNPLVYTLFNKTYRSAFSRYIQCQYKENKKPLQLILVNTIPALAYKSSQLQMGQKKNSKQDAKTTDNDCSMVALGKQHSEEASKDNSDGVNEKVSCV

T2 sequence (Q9H461 28-694): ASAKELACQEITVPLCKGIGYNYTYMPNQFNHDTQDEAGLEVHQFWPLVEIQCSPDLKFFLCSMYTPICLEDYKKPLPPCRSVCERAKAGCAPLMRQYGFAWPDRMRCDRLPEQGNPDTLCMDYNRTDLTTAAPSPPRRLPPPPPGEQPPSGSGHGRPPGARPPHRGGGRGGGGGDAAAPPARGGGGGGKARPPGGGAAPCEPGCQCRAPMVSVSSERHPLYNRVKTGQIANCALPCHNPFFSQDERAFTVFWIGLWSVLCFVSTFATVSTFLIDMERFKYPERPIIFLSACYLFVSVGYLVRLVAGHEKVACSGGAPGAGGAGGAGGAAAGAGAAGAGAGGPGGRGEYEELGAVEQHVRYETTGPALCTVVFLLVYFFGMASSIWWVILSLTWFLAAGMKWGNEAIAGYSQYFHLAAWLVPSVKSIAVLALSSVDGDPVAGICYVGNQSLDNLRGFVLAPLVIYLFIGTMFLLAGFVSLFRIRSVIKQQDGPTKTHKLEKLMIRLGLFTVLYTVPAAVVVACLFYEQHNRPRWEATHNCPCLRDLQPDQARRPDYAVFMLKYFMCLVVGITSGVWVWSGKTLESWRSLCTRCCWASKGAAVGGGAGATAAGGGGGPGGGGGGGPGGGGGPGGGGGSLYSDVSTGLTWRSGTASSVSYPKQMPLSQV

NanoBRET Fold Response (TACR3; TACR3, 0.1μM): 1.10 | NanoBRET Fold Response (TACR3; TACR3, 1μM): 1.10 | NanoBRET Fold Response (FZD8; FZD8, 0.1μM): 1.11 | NanoBRET Fold Response (FZD8; FZD8, 1μM): 0.71 | NanoBRET Fold Response (HTR2A; HTR2A, 0.1μM): 0.96 | NanoBRET Fold Response (HTR2A; HTR2A, 1μM): 1.01
SMILES: CCOC(=O)c1cc(C#N)c(N2CCC(C(=O)NS(=O)(=O)Cc3ccccc3/C=C/C(=O)NCCNC(=O)CCc3ccc4n3[B-](F)(F)[N+]3=C(c5ccc[nH]5)C=CC3=C4)CC2)nc1C [AZD1283-1-NB590]

NanoBRET Fold Response (HTR2A; HTR2A, other tracers/Aminopotentidine (unmodified), 0.1μM): 1.10 | NanoBRET Fold Response (HTR2A; HTR2A, other tracers/Aminopotentidine (unmodified), 1μM): 1.07
SMILES: N#CN/C(=N\CCNC(=O)c1ccc(N)cc1)NCCCOc1cccc(CN2CCCCC2)c1 [Aminopotentidine (unmodified)]

NanoBRET Fold Response (TACR3; TACR3, tracer 0.1μM): 1.06 | NanoBRET Fold Response (TACR3; TACR3, tracer 1μM): 1.06 | NanoBRET Fold Response (FZD8; FZD8, tracer 0.1μM): 0.98 | NanoBRET Fold Response (FZD8; FZD8, tracer 1μM): 1.01 | NanoBRET Fold Response (HTR2A; HTR2A, tracer 0.1μM): 0.98 | NanoBRET Fold Response (HTR2A; HTR2A, tracer 1μM): 1.02
SMILES: N#CN=C(NCCCOc1cccc(CN2CCCCC2)c1)NCCNC(=O)CCOCCOCCOCCOCCNC(=O)CCc1ccc2n1[B-](F)(F)[N+]1=C(c3ccc[nH]3)C=CC1=C2 [Aminopotentidine-2-NB590]

SMILES: CN(C)CCC=C1c2ccccc2CCc2ccc(C(=O)NCCNC(=O)CCOCCOCCOCCOCCNC(=O)CCc3ccc4n3[B-](F)(F)[N+]3=C(c5ccc[nH]5)C=CC3=C4)cc21 [Amitriptyline-a-2-NB590]
NanoBRET Fold Response (TACR3; tracer at 1μM): 1.03

SMILES: CN(C)CCC=C1c2ccccc2CCc2ccc(C(=O)NCCNC(=O)CCOCCOCCOCCOCCNC(=O)CCc3ccc4n3[B-](F)(F)[N+]3=C(c5ccc[nH]5)C=CC3=C4)cc21 [Amitriptyline-b-2-NB590]
NanoBRET Fold Response (TACR3; tracer at 1μM, listed as amitriptyline-b-2-NB590): 0.97 | NanoBRET Fold Response (FZD8; tracer at 0.1μM): 1.03 | NanoBRET Fold Response (FZD8; tracer at 1μM): 1.00

NanoBRET Fold Response (TACR3; 0.1μM tracer): 1.06 | NanoBRET Fold Response (TACR3; 1μM tracer): 0.87 | NanoBRET Fold Response (FZD8; 0.1μM tracer): 1.39 | NanoBRET Fold Response (FZD8; 1μM tracer): 0.81 | NanoBRET Fold Response (HTR2A; 0.1μM tracer): 1.06 | NanoBRET Fold Response (HTR2A; 1μM tracer): 1.06
SMILES: COc1ccc2c(n1)c(CCNC(C)=O)cn2CCNC(=O)CCc1ccc2n1[B-](F)(F)[N+]1=C(c3ccc[nH]3)C=CC1=C2 [Azamelatonin-1-NB590]

NanoBRET Fold Response (TACR3; 0.1μM tracer): 1.23 | NanoBRET Fold Response (TACR3; 1μM tracer): 1.00 | NanoBRET Fold Response (FZD8; 0.1μM tracer): 0.91 | NanoBRET Fold Response (FZD8; 1μM tracer): 1.03 | NanoBRET Fold Response (HTR2A; 0.1μM tracer): 0.92 | NanoBRET Fold Response (HTR2A; 1μM tracer): 1.02
SMILES: COc1ccc2[nH]c(-c3ccc(CNC(=O)CCOCCOCCOCCOCCNC(=O)CCc4ccc5n4[B-](F)(F)[N+]4=C(c6ccc[nH]6)C=CC4=C5)cc3)c(CCNC(C)=O)c2n1 [AzomelatoninICO9-2-NB590]

NanoBRET Fold Response (TACR3; TACR3, 0.1μM tracer): 0.99 | NanoBRET Fold Response (TACR3; TACR3, 1μM tracer): 1.21 | NanoBRET Fold Response (FZD8; FZD8, 0.1μM tracer): 1.02 | NanoBRET Fold Response (FZD8; FZD8, 1μM tracer): 1.00 | NanoBRET Fold Response (HTR2A; HTR2A, 0.1μM tracer): 2.26 | NanoBRET Fold Response (HTR2A; HTR2A, 1μM tracer): 2.01
SMILES: O=C(CCOCCOCCOCCOCCNC(=O)CCc1ccc2n1[B-](F)(F)[N+]1=C(c3ccc[nH]3)C=CC1=C2)NCCCN1CCN(C2=Nc3cc(Cl)ccc3Nc3ccccc32)CC1 [Clozapine-a-2-NB590]

SMILES: CN1CCN(C2=Nc3cc(Cl)ccc3Nc3ccc(CNC(=O)CCOCCOCCOCCOCCNC(=O)CCc4ccc5n4[B-](F)(F)[N+]4=C(c6ccc[nH]6)C=CC4=C5)cc32)CC1 [Clozapine-b-2-NB590]
NanoBRET Fold Response (TACR3; TACR3, 0.1μM tracer): 1.01 | NanoBRET Fold Response (TACR3; TACR3, 1μM tracer): 1.05 | NanoBRET Fold Response (FZD8; FZD8, 0.1μM tracer): 1.00 | NanoBRET Fold Response (FZD8; FZD8, 1μM tracer): 1.02
